This note sets out measurements from patent publication US7494767B2, “Assay for TSG101 as inhibitors of HIV production” (priority 2001, dated 2009).

One assay has as its system HIV-1 particles. The experiment in a line: Release of HIV-1 virus-like particles from transfected COS-1 cells (Western blot of particles, anti-CA). The class given is cell-based. Conditions: 5 μM pa in the absence of pIND-h-Tsg101-FLAG. In general terms: A western blot detects proteins with antibodies after separation by electrophoresis.
The target in assay [1] is T1, Tsg101 capture by Pr55^Gag (Homo sapiens, UniProt Q99816).
T1 construct: anneals at the position corresponding to amino acid 10 in the protein, and 3′ primer no; 30, which anneals to the C-terminus; made in house; host or cells: Tsg101: rabbit reticulocyte lysate (TNT T7 system); Pr55Gag: E. coli BL21-DE3
T1 sequence (Q99816 11-390): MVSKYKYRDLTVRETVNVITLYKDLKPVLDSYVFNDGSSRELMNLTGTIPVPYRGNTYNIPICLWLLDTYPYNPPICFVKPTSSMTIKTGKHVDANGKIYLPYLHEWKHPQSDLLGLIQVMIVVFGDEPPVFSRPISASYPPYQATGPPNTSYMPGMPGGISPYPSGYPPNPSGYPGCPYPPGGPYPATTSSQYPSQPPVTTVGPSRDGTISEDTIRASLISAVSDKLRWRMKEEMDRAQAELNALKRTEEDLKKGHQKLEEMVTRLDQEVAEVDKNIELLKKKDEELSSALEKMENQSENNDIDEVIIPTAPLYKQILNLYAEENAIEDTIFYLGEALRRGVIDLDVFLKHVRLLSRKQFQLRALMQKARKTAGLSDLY
The experiment in a line: Immune capture competition assay: Tsg101 capture by Pr55^Gag on antibody-coated Protein A beads. Conditions: 5-fold molar excess of peptide. The class given is binding, mouse or human. The protocol: Protein detection. Proteins were separated by electrophoresis through a 12.5% SDS polyacrylamide gel. For detection of radiolabeled Tsg101 after electrophoresis, gels were fixed, incubated for 30 min in EN^3HANCE (DuPont NEN) autoradiography enhancer for gel fluorography and dried. Radioactive bands were visualized using imaging film (BioMax, Kodak). Gels with non-radioactive samples were transferred to nitrocellulose and analyzed by Western blotting. The following antibodies, as specified in the text, were used: anti-capsid (CA)1 and -CA2 (rabbit polyclonal antibodies raised against native and denatured forms of the CA protein, respectively; Ebbets-Reed, D., 1996, in Molecular Microbiology, State University of New York at Stony Brook, Stony Brook, N.Y., pp. 209; Ehrlich, L. S., Agresta, B. E. & Carter, C. A., 1992, J. Virol. 66,4874-4883); anti-CA3 (mouse monoclonal antibody, NEN-DuPont); anti-p6 (rabbit polyclonal against the C-terminal 16 amino acids, S. Campbell, NCI-FCRDC); anti-nucleocapsid (NC, goat polyclonal, A. Rein, NCI-FCRDC); anti-T7 (Novagen); anti-Tsg1011 (monoclonal, Santa Cruz); antiTsg1012 (rabbit polyclonal, obtained from S. Cohen, Stanford U.). […]
Tsg101 binds to Pr55^Gag in vitro. […] The protein was detected consistently as a doublet, perhaps due to internal initiation at Met10. The protein was also sometimes detected as a doublet in cytoplasmic extracts. […]

Regarding `CC(C)CC[C@@H](O)[C@](C)(O)[C@H]1CC[C@@]2(O)C3=CC(=O)[C@@H]4C[C@@H](O)[C@@H](O)C[C@]4(C)[C@H]3CC[C@]12C` [pa, reference compound], the “inhibitory effect on virus release” value with HIV-1 particles is reported as “no inhibitory effect”.
Consider LIAPP, for which the “reduction in Tsg101 capture by Pr55^Gag” value in assay [1] is listed as “no change was detected”.
